Test [1] concerns the target T1, IDH2/R140Q (Homo sapiens, UniProt P48735, R140Q).
T1 sequence (P48735 40-452 R140Q): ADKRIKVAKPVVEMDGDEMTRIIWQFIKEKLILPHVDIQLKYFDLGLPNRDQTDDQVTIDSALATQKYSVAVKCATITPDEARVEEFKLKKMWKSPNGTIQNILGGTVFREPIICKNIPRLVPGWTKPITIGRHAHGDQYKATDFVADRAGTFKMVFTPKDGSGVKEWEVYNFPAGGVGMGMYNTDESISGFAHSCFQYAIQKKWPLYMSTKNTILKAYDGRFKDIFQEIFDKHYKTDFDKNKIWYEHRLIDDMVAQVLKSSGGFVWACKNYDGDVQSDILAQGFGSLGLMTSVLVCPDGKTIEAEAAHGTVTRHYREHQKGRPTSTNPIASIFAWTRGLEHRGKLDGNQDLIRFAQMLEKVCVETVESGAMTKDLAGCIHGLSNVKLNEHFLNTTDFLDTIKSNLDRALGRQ
Briefly: Inhibition of mutant IDH2 activity at the cell level (extracellular 2-HG, U87MG overexpressing IDH2/R140Q). The format is cell-based. The method, then:
2-hydroxyglutarate dehydrogenase (2HGDH) can reduce NAD+ to NADH in the presence of 2-HG. The latter can be quantitatively detected by diaphorase and its substrate Resazurin.
The glioma cells U87MG overexpressing IDH2/R140Q mutation were cultured in 1% sodium pyruvate high-sugar MEM, 10% FBS, and placed in a CO2 incubator (37° C., 5% CO2, 95% air) for cultivation.
The cells were digested with trypsin and seeded in a 96-well plate at a density of 1×10^4 with a medium of 200 μL and cultured in a 37° C. incubator overnight. The next day, the test compound was added to a final concentration of 0.1% for DMSO. […] The protein and other components in the medium that may interfere with the results were filtered, and the follow-up method was used to detect the content of 2-HG. 50 uL CellTiter-Glo (purchased from Promega) was added to the 96-well plate with the remaining 100 μL of medium to detect cell survival;
Extracellular 2-HG detecting system:
(1) 50 μL reaction system: reaction buffer (50 mM Tris pH7.5, 100 mM NaCl, 20 mM MgCl2, 0.05% BSA), in which the final concentration of NAD+ was 40 μM, the final concentration of 2HGDH was 20 nM, and the test sample was added to 5 μL of medium; the reaction solution was mixed and centrifuged, and the reaction was carried out for 1 hour at 25° C. in the dark;
Preparation of 2-HG standard curve: a 2-HG stock solution was diluted to 20 μM with reaction buffer, and a 2-fold gradient diluting was performed for a total of 6 points. Afterwards, the above-mentioned 2-HG was measured according to the extracellular 2-HG detecting system, and a standard curve was calculated and drawn.
Calculation of extracellular 2-HG content:
The fluorescence value obtained in the extracellular 2-HG detecting system was calculated using the 2-HG standard curve to calculate the content of 2-HG in the medium, and DMSO was used as a negative control to calculate the compound's inhibition against IDH2/R140Q mutation producing 2-HG activity.

For test [2], the target named is T1, IDH2/R140Q. Description: Determination of the inhibitory activity of the compounds on IDH2/R140Q (NADPH reduction, resazurin/lipoamide dehydrogenase detection). The format is biochemical. Details: purchased Abcam ab198153. Here is the method: In this example, the inhibitory activity of a compound on IDH2/R140Q was determined by measuring the reduction of the cofactor NADPH. The compound was incubated with IDH2/R140Q and NADPH, and then the reaction was initiated by adding α-KG. After a certain time of reaction under linear conditions, lipoamide dehydrogenase and the corresponding substrate resazurin were added for detection. Lipoamide dehydrogenase terminated the IDH2/R140Q reaction bγ subtracting the available cofactor NADPH. It oxidized NADPH to NADP, and reduced resazurin to highly fluorescent resorufin. The production of resorufin was detected to quantify the amount of cofactor NADPH remaining after a specific reaction time.
Then 25 μL of a stop mixed solution (lipoamide dehydrogenase 36 μg/mL, resazurin 30 μM) prepared with the above reaction buffer was added to convert resazurin to resorufin to measure the remaining NADPH. After 10 minutes of incubation at 25° C., the fluorescence value was measured by Tecan […] […] The enzyme activity was measured at 10 concentrations for each compound, and multiple background holes without enzyme and full enzyme activity holes without compound were set up in the reaction. The concentration of dimethyl sulfoxide in the system was less than or equal to 2%. […] The multi-well plate in this example was purchased from Thermo Fisher Scientific, NADPH, α-KG, lipoamide dehydrogenase, and resazurin were purchased from Shenggong Bioengineering Co., Ltd., and IDH2/R140Q was purchased from Abcam (ab198153).
A general note: Resazurin is reduced to fluorescent resorufin, in cell work by metabolically active cells.

The mark [3] stands for this setting: IDH2/R140Q inhibitory activity, cells marked (1 h), read-out: IC50.
[4] abbreviates: U87MG overexpressing IDH2/R140Q, 2-HG in medium after 24 hours of culturing with compound, read-out: IC50.
Where [5] appears, read: IDH2/R140Q inhibitory activity, pre-incubated at 25° C. for 16 hours, read-out: IC50.

As to `CC(C)(O)CNc1nc(Nc2ccnc(C(F)(F)F)c2)nc(-c2cccc(C(F)(F)F)n2)n1` [AG-221, Enasidenib, reference compound], the IC50 against IDH2/R140Q [1] and against IDH2/R140Q [2] was below 0.1 µM each time.
For `CC(C)n1cnc2c(Nc3ccccc3)nc(-c3ccccc3)nc21` [Compound 1, 9-isopropyl-N,2-diphenyl-9H-purin-6-amine], the IC50 on IDH2/R140Q [2] (setting [3]) was above 10 µM.
Regarding `COc1ccccc1Nc1nc(-c2ccccc2)nc2c1ncn2C(C)C` [Compound 2, 9-isopropyl-N-(2-methoxyphenyl)-2-phenyl-9H-purin-6-amine], the IC50 at IDH2/R140Q [2] (setting [3]) was above 10 µM.
Consider `CC(C)n1cnc2c(Nc3ccnc(C(F)(F)F)c3)nc(-c3ccccc3)nc21` [Compound 3, 9-isopropyl-2-phenyl-N-(2-(trifluoromethyl)pyridin-4-yl)-9H-purin-6-amine], for which the IC50 at IDH2/R140Q [1] (setting [4]) and on IDH2/R140Q [2] (setting [3]) was above 10 µM each time.
With `CC(C)n1cnc2c(Nc3ccnc(C(F)(F)F)c3)nc(-c3cccc(C(F)(F)F)n3)nc21` [Compound 4, 9-isopropyl-2-(6-(trifluoromethyl)pyridin-2-yl)-N-(2-(trifluoromethyl)pyridin-4-yl)-9H-purine-6-amine], the IC50 on IDH2/R140Q [1] (setting [4]) and on IDH2/R140Q [2] (setting [3]) was above 10 µM in each case.
For the compound `CC(C)n1cnc2c(Nc3ccnc(C(F)(F)F)c3)nc(-c3cccnc3)nc21` [Compound 5, 9-isopropyl-2-(pyridin-3-yl)-N-(2-(trifluoromethyl)pyridin-4-yl)-9H-purin-6-amine], the IC50 on IDH2/R140Q [1] (setting [4]) and at IDH2/R140Q [2] (setting [3]) was above 10 µM in each case.
As for `c1ccc(Nc2nc(-c3ccccc3)nc3[nH]cnc23)cc1` [Compound 6, N,2-diphenyl-9H-purin-6-amine], the concentration for half-maximal inhibition (IC50) on IDH2/R140Q [1] (setting [4]) and at IDH2/R140Q [2] (setting [3]) was above 10 µM throughout.
With `Cc1cc2c(-c3ccccc3)nc(Nc3ccccc3)nc2[nH]1` [Compound 7, 6-methyl-N,4-diphenyl-7H-pyrrolo[2,3-d]pyrimidin-2-amine], the IC50 at IDH2/R140Q [1] (setting [4]) and on IDH2/R140Q [2] (setting [5]) was 1 to 10 µM in each case.
For `Cc1cc2c(Nc3ccccc3)nc(-c3ccccc3)nc2[nH]1` [Compound 8, 6-methyl-N,2-diphenyl-7H-pyrrolo[2,3-d]pyrimidin-4-amine], the IC50 at IDH2/R140Q [1] (setting [4]) fell in the range of 1 to 10 µM; on IDH2/R140Q [2] (setting [5]) it was 0.1 to 1 µM.
For the compound `CC(C)n1cnc2c(Nc3ccnc(C(F)(F)F)c3)nc(-c3ccncc3)nc21` [Compound 9, 9-isopropyl-2-(pyridin-4-yl)-N-(2-(trifluoromethyl)pyridin-4-yl)-9H-purin-6-amine], the concentration for half-maximal inhibition (IC50) at IDH2/R140Q [1] (setting [4]) and at IDH2/R140Q [2] (setting [3]) was above 10 µM throughout.
Turning to `CC(C)n1cnc2c(Nc3ccnc(C(F)(F)F)c3)nc(-c3ccccn3)nc21` [Compound 10, 9-isopropyl-2-(pyridin-2-yl)-N-(2-(trifluoromethyl)pyridin-4-yl)-9H-purin-6-amine], the IC50 at IDH2/R140Q [1] (setting [4]) and at IDH2/R140Q [2] (setting [3]) was above 10 µM each time.
With `Cn1ccc2c(Nc3ccccc3)nc(-c3ccccc3)nc21` [Compound 11, 7-methyl-N,2-diphenyl-7H-pyrrolo[2,3-d]pyrimidin-4-amine], the 50% inhibitory concentration (IC50) on IDH2/R140Q [2] (setting [3]) was above 10 µM.
Regarding `CC(C)n1cnc2c(-c3ccccc3)nc(Nc3ccccc3)nc21` [Compound 12, 9-isopropyl-N,6-diphenyl-9H-purin-2-amine], the half-maximal inhibitory concentration (IC50) at IDH2/R140Q [1] (setting [4]) and on IDH2/R140Q [2] (setting [3]) was above 10 µM throughout.
With `Cc1cc2c(NC(C)C)nc(-c3ccccc3)nc2[nH]1` [Compound 13, N-isopropyl-6-methyl-2-phenyl-7H-pyrrolo[2,3-d]pyrimidin-4-amine], the concentration for half-maximal inhibition (IC50) on IDH2/R140Q [1] (setting [4]) and at IDH2/R140Q [2] (setting [5]) was 0.1 to 1 µM each time.
With `Cc1nc2c(Nc3ccccc3)nc(-c3ccccc3)nc2[nH]1` [Compound 14, 8-methyl-N,2-diphenyl-9H-purin-6-amine], the half-maximal inhibitory concentration (IC50) on IDH2/R140Q [1] (setting [4]) and on IDH2/R140Q [2] (setting [3]) was above 10 µM each time.
Regarding `Cc1cc2c(NC3CC3)nc(-c3ccc4ccccc4c3)nc2[nH]1` [Compound 15, N-cyclopropyl-6-methyl-2-(naphthalene-2-yl)-7H-pyrrolo[2,3-d]pyrimidin-4-amine], the IC50 at IDH2/R140Q [2] (setting [5]) was above 10 µM.
`Cc1cc2c(NC(C)C)nc(-c3ccccn3)nc2[nH]1` [Compound 16, N-isopropyl-6-methyl-2-(pyridin-2-yl)-7H-pyrrolo[2,3-d]pyrimidin-4-amine]: the results for the IC50 on IDH2/R140Q [1] (setting [4]) and on IDH2/R140Q [2] (setting [5]) were 1 to 10 µM and above 10 µM, respectively.
Regarding `Cc1cc2c(NC(C)C)nc(-c3cccnc3)nc2[nH]1` [Compound 17, N-isopropyl-6-methyl-2-(pyridin-3-yl)-7H-pyrrolo[2,3-d]pyrimidin-4-amine], the IC50 at IDH2/R140Q [1] (setting [4]) and on IDH2/R140Q [2] (setting [5]) was above 10 µM throughout.
On to `Cc1cc2c(NC(C)C)nc(-c3ccncc3)nc2[nH]1` [Compound 18, N-isopropyl-6-methyl-2-(pyridin-4-yl)-7H-pyrrolo[2,3-d]pyrimidin-4-amine], for which the IC50 at IDH2/R140Q [1] (setting [4]) and on IDH2/R140Q [2] (setting [5]) was above 10 µM throughout.
For `c1ccc(Nc2nc(-c3ccccc3)nc3[nH]ccc23)cc1` [Compound 19, N,2-diphenyl-7H-pyrrolo[2,3-d]pyrimidin-4-amine], the IC50 on IDH2/R140Q [1] (setting [4]) and on IDH2/R140Q [2] (setting [5]) was above 10 µM in each case.
As to `Cc1cc2c(Nc3ccnc(C(F)(F)F)c3)nc(-c3ccccc3)nc2[nH]1` [Compound 20, 6-methyl-2-phenyl-N-(2-(trifluoromethyl)pyridin-4-yl)-7H-pyrrolo[2,3-d]pyrimidin-4-amine], the values for the IC50 on IDH2/R140Q [1] (setting [4]) and at IDH2/R140Q [2] (setting [5]) were 1 to 10 µM and 0.1 to 1 µM, respectively.
Turning to `Cc1cc2c(Nc3ccnc(F)c3)nc(-c3ccccc3)nc2[nH]1` [Compound 21, N-(2-fluoropyridin-4-yl)-6-methyl-2-phenyl-7H-pyrrolo[2,3-d]pyrimidin-4-amine], the half-inhibitory concentration (IC50) was 1 to 10 µM on IDH2/R140Q [1] (setting [4]) and above 10 µM on IDH2/R140Q [2] (setting [5]).
On to `Cc1cc2c(-c3ccccc3)nc(-c3ccccc3)nc2[nH]1` [Compound 26, 6-methyl-2,4-diphenyl-7H-pyrrolo[2,3-d]pyrimidine], for which, at IDH2/R140Q [2] (setting [5]), the IC50 was above 10 µM.
`Cc1cc2c(NC(C)(C)C)nc(-c3ccccc3)nc2[nH]1` [Compound 27, N-(tert-butyl)-6-methyl-2-phenyl-7H-pyrrolo[2,3-d]pyrimidin-4-amine]: the IC50 at IDH2/R140Q [2] (setting [5]) is above 10 µM.
Still for that read-out and setting: under `Cc1cc2c(NCc3ccccc3)nc(-c3ccccc3)nc2[nH]1` [Compound 30, N-benzyl-6-methyl-2-phenyl-7H-pyrrolo[2,3-d]pyrimidin-4-amine] stands above 10 µM.
Still for that read-out and setting: to `CC(C)Nc1nc(-c2ccccc2)nc2[nH]ccc12` [Compound 32, N-isopropyl-2-phenyl-7H-pyrrolo[2,3-d]pyrimidin-4-amine] belongs above 10 µM; to `CC(C)Nc1nc(-c2ccccc2)nc2[nH]c(Br)cc12` [Compound 33, 6-bromo-N-isopropyl-2-phenyl-7H-pyrrolo[2,3-d]pyrimidin-4-amine], above 10 µM; to `Cc1cc2c(NCC(C)(C)O)nc(-c3ccccc3)nc2[nH]1` [Compound 35, 2-methyl-1-((6-methyl-2-phenyl-7H-pyrrolo[2,3-d]pyrimidin-4-yl)amino)propan-2-ol], above 10 µM.

One may read the IC50 as the concentration that inhibits the measured activity by half.

These data come from patent US20220204509A1, “PYRIMIDO FIVE-MEMBERED HETEROCYCLIC COMPOUND AND USE THEREOF AS MUTANT IDH2 INHIBITOR” (EPITAS BIOSCIENCES (SHANGHAI) CO., LTD., priority 2019, published 2022).
